# Measurements taken from patent publication US20110160311A1, “Sweetness Enhancers, Compositions Thereof, and Methods for Use” (The Coca-Cola Company, priority 2009, published 2011).
# Key:
# [1] = Sweetness detection threshold level in water, multi-sip and swallow taste method; assay type: in vivo, human; conditions: for Sweetness Detection Threshold Level: in water at room temperature, single assessor; for Sweetness Threshold Level: estimation sweetness/off-taste threshold in water at room temperature (RT)
# Source text: As used herein, the terms “sweetness threshold,” “sweetness recognition threshold,” and “sweetness detection threshold” are understood to mean the level at which the lowest known concentration of a certain sweet compound that is perceivable by the human sense of taste and it can vary from person to person. For example, a typical sweetness threshold level for sucrose in water can be 0.5%.
# Further for example, the at least one sweetness enhancer to be used can be assayed in water at least 25% lower and at least 25% higher than the sucrose detection level of 0.5% in water to determine the sweetness threshold level.
# (§1) A first sip (approximately 2.2 mL) of a ca. 20 mL control composition was taken and swallowed. After waiting for a time ranging from 15 to 25 seconds, a second sip of control composition was taken and swallowed, and the sweetness and/or taste of the control composition was noted. After waiting for a time ranging from 15 to 25 seconds, these steps were repeated with a comparative composition. The sweetness and taste differences between the control and the comparative composition were noted. For each tested composition, this cycle was repeated once to confirm the initial findings. All samples were measured at average 23.0° C.±1° C. between samples for consistent comparison and to minimize any effects of temperature on the perceived taste or sweetness of the composition.
# (§2) To perform the taste test, three sweetener samples were paired with one additive and taste tested as described above. A three minute break was taken before tasting another three sweetener samples paired with a different additive. Up to 10 additives per day were used to minimize a fatigue factor. Before tasting, at least 1.5 hours elapsed after ingestion of any food, drink or nicotine. The tests were repeated on a different date to validate the initial findings.
# The sweetness detection threshold levels for 21 entities were measured by a single assessor in water at room temperature according to the multi-sip and swallow taste method described herein.
# [2] = Sweetness enhancement of glucose, fructose or sucrose at 6% SE in water by additive at its threshold level; assay type: in vivo, human; conditions: for Sweetness of the composition after enhancement: from about 6% SE (sucrose control), REB C at 100 ppm, the other compound at 25 ppm
# [3] = as above; assay type: in vivo, human; parameters: key: T: Slight thicker-like sweetness (not intensity factor).; No difference; N(S+): No difference but slightly more sweet (0.5-0.75%); +S: More sweetness intensity (~1.0% SE); ++S: Much more sweetness intensity (~2.0% SE); conditions: room temperature, additive at its Table 1 threshold level; for Sensory result versus FRU 55,000 ppm: fructose at 6% SE in water; for Sensory result versus GLU 99,000 ppm: glucose at 6% SE in water; for Sensory result versus SUC 60,000 ppm: sucrose at 6% SE in water
# Procedure: as §1, §2
# The twenty-one entities above were combined in a concentration at the sweetness detection threshold level listed in Table 1, with one of Glucose (GLU), Fructose (FRU), and Sucrose (SUG), each at a fixed SE (Sucrose Equivalents) level of 6%. The sweetness of the compositions was measured as described above at room temperature.
# [4] = By-products of 500 ppm REB A after two months of storage in phosphoric acid at RT; assay type: physicochemical; conditions: approximated concentration of by-product of 500 ppm REB A
# [5] = Rubusoside sweetness detection threshold estimation in water, sip-and-spit, 5 subjects; assay type: in vivo, human; conditions: 50 ppm solution in purified water, all 5 subjects
# Procedure: Preliminarily, a 1,000 ppm steviol glycoside solution was prepared by dissolution of 20 mg steviol glycoside in 20 mL purified water. An aliquot (10 mL) of this solution was diluted to 20 mL with water to obtain a 500 ppm solution. Additional 1:1 serial dilutions were used to obtain 250, 125, 62.5, 31.2 and 15.6 ppm solutions. Those solutions were then tasted in ascending order of concentration by one experienced subject by using the sip-and-spit protocol disclosed herein. The subject's estimated sweetness detection threshold was determined to be at the lowest concentration at which sweetness was definitely observed.
# Thereafter, a 200 ppm solution of rubusoside was prepared by dissolution of 20 mg rubusoside in 200 mL purified water. An aliquot (50 mL) of this solution then was diluted to 100 mL with water to obtain a 100 ppm solution. Additional 1:1 serial dilution steps were used to prepare 50 and 25 ppm solutions. These solutions then were tasted in ascending order of concentration by 5 experienced subjects by the sip-and-spit protocol.
# [6] = Descriptive sensory analysis of lemon-lime carbonated beverages at 4° C.; assay type: in vivo, human; conditions: 135 ppm rubusoside added to 8% HFSS lemon-lime beverage
# Procedure: Three test products were prepare: a control beverage comprising 10.52% High Fructose Starch Syrup (HFSS), a lemon-lime prototype comprising 8% HFSS and 135 ppm rubusoside, and a standard lemon-lime beverage comprising 8% HFSS.
# As part of study design, a full sensorial profile was determined using a Complete Block Design (CBD). All products were randomized and balanced. Each assessor evaluated all products sequentially. Each product was evaluated three times by each assessor. Eight minute time breaks between tasting samples. Unsalted cracker, 0.75% saline solution and mineral grade water was used as a mouth rinse and refresher before each sample. Each assessor was served 75 ml of chilled beverage (4° C.+/−1° C.). Table 5 provides the categories and the descriptions of the various attributes identified in Table 4.
# [7] = Rubusoside and 6% sucrose sweetness enhancement test; assay type: in vivo, human; conditions: 50 mg rubusoside in 1 L of 6% sucrose; scale of 6-10 relative to 6-10% sucrose references; 6% sucrose reference rated 6.1
# Procedure: Reference samples were prepared at 6, 7, 8, 9 and 10% sucrose (w/v). The test sample was prepared by addition of 50 mg of rubusoside to 1 L of 6% sucrose. The test sample was mixed with five sucrose control samples of various concentrations in the 6-10% sucrose range. Each of the six samples was then individually rated for sweetness intensity on a scale of 6-10 relative to the 6-10% sucrose references.
# The Sweetness Intensity Rating ranged from 6 to 10, for each subject.
# [8] = Sweetness recognition threshold in lemon-lime carbonated beverage at 4° C.; assay type: in vivo, human; conditions: lemon-lime carbonated beverage (citric buffer) at 4° C., average of six subjects
# Procedure: Preliminarily, multi-levels of steviol glycoside solution in lemon-lime beverage at 4° C. were prepared by mixing the calculated formulations to obtain 450, 350, 250 and 150 ppm of steviol glycoside solutions. Those solutions were then tasted by six experienced subjects by using the sip-and-spit protocol disclosed herein. The sweetness recognition threshold for rubusoside was determined to be averaged 150 ppm. For sweetness enhancement test of rubusoside in lemon-lime beverage, it was decided to use a 10 percent less of sweetness recognition threshold or 135 ppm (150−10%=135).
# [9] = in water; cited from earlier work
compound,measurement,setting,value
C=C1CC23CCC4C(C)(C(=O)OC5OC(CO)C(O)C(O)C5O)CCCC4(C)C2CCC1(OC1OC(CO)C(O)C(OC2OC(CO)C(O)C(O)C2O)C1OC1OC(CO)C(O)C(OC2OC(CO)C(O)C(O)C2O)C1O)C3 [13-[(2-O-(3-O-α-D-glucopyranosyl)-β-D-glucopyranosyl-3-O-β-D-glucopyranosyl-β-D-glucopyranosyl)oxy] kaur-16-en-18-oic acid β-D-glucopyranosyl ester],Sweetness Detection Threshold Level,[1],25 ppm
same,Sweetness of the composition after enhancement,[2],about 7 % SE
same,"Sensory result versus FRU 55,000 ppm",[3],N(S+) (No difference but slightly more sweet (0.5-0.75%))
same,"Sensory result versus GLU 99,000 ppm",[3],N(S+) (No difference but slightly more sweet (0.5-0.75%))
same,"Sensory result versus SUC 60,000 ppm",[3],+S (More sweetness intensity (~1.0% SE))
C[C@@]12CCC[C@@](C)(C(=O)O[C@@H]3O[C@H](CO)[C@@H](O)[C@H](O)[C@H]3O)[C@H]1CC[C@]13C=C(CO)[C@](O[C@@H]4O[C@H](CO)[C@@H](O)[C@H](O[C@@H]5O[C@H](CO)[C@@H](O)[C@H](O)[C@H]5O)[C@H]4O[C@@H]4O[C@H](CO)[C@@H](O)[C@H](O)[C@H]4O)(CC[C@H]12)C3 [13-[(2-O-β-D-glucopyranosyl-3-O-β-D-glucopyranosyl]-β-D-glucopyranosyl)oxy]-17-hydroxy-kaur-15-en-18-oic acid β-D-glucopyranosyl ester],Sweetness Threshold Level,[1],250 ppm
same,Sweetness Detection Threshold Level,[1],250 ppm
same,"Sensory result versus FRU 55,000 ppm",[3],N
same,"Sensory result versus GLU 99,000 ppm",[3],N
same,"Sensory result versus SUC 60,000 ppm",[3],N(S+) (No difference but slightly more sweet (0.5-0.75%))
same,Levels After 2 Month of Storage,[4],1 ppm
C=C1C[C@@]23CC[C@H]4[C@@](C)(CCC[C@@]4(C)C(=O)O[C@@H]4O[C@H](CO)[C@@H](O)[C@H](O)[C@H]4O)[C@@H]2CC[C@]1(O[C@@H]1O[C@H](CO)[C@@H](O)[C@H](O)[C@H]1O)C3 [Rubusoside],Sweetness Detection Threshold Level,[1],50 ppm
same,Taste of the solution,[5],absence of taste
same,Enhancement of the 6% sucrose,"[2]; rubusoside at 50 ppm, 6% sucrose in water",about 2 % SE
same,"Sensory result versus FRU 55,000 ppm",[3],N(S+) (No difference but slightly more sweet (0.5-0.75%))
same,"Sensory result versus GLU 99,000 ppm",[3],N(S+) (No difference but slightly more sweet (0.5-0.75%))
same,"Sensory result versus SUC 60,000 ppm",[3],++S (Much more sweetness intensity (~2.0% SE))
same,Times as sweet as the prototype without rubusoside,[6],1.15 times
same,Sweetness equivalence,[6]; interpolation of the data,9.2 % HFSS
same,Average sweetness intensity rating,[7],7.9
same,Sweetness recognition threshold,[8],150 ppm
OC[C@H]1O[C@@](CO)(O[C@H]2O[C@H](CO)[C@@H](O)[C@H](O)[C@H]2O)[C@@H](O)[C@@H]1O [sucrose],Typical sweetness threshold level,[9],0.5%
Rebaudioside B,Sweetness Threshold Level,[1],25 ppm
same,Sweetness Detection Threshold Level,[1],25 ppm
same,"Sensory result versus FRU 55,000 ppm",[3],N
same,"Sensory result versus GLU 99,000 ppm",[3],N
same,"Sensory result versus SUC 60,000 ppm",[3],N
same,Levels After 2 Month of Storage,[4],17 ppm
Rebaudioside C,Sweetness Detection Threshold Level,[1],100 ppm
same,Sweetness of the composition after enhancement,[2],about 7 % SE
same,"Sensory result versus FRU 55,000 ppm",[3],N(S+) (No difference but slightly more sweet (0.5-0.75%))
same,"Sensory result versus GLU 99,000 ppm",[3],N(S+) (No difference but slightly more sweet (0.5-0.75%))
same,"Sensory result versus SUC 60,000 ppm",[3],+S (More sweetness intensity (~1.0% SE))
